Several values for one entry are separate records, joined by “and”; a condition that tells them apart may be missing. Equal entries are not always repeated.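 Interpolation was linear, between the two tested concentrations surrounding the appropriate level; five concentrations were tested over 48 hours in 96-well plates. Here, GI50 denotes the concentration required for 50% inhibition of growth. The concentration for full growth arrest is given as TGI.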
What was measured:
Experiment in all cases: NCI-60 cell line screen, 48 h
[1] = system: UACC-62 melanoma
[2] = system: SNB-19 CNS
[3] = system: SF-539 CNS
[4] = system: SK-MEL-28 melanoma
[5] = system: CCRF-CEM leukemia
[6] = system: HOP-92 NSCLC
[7] = system: HL-60(TB) leukemia
[8] = system: OVCAR-3 ovarian

SMILES | GI50 [1] [µM] | TGI [1] [µM] | GI50 [2] [µM] | TGI [2] | GI50 [3] [µM] | TGI [3] | GI50 [4] [µM] | TGI [4] | GI50 [5] [µM] | TGI [5] | GI50 [6] [µM] | TGI [6] | GI50 [7] [µM] | TGI [7] | GI50 [8] [µM] | TGI [8]
CCC1OC(/C(C)=C/C(C)/C=C/C2C(C)C2/C=C/C2OC(CC(=O)O)CC(O)C2O)CC=C1C (stereo not given) | > 50 | > 50 | > 50 | > 50 µM | > 50 | > 50 µM | > 50 | > 50 µM | > 50 | > 50 µM |  |  |  |  |  | 
Cc1cc(S(=O)(=O)Nc2nc3cc(-c4ccsc4)sc3c(=O)n2N)c(S)cc1Cl | 24.8 | 72.2 | 86 | > 100 µM | 67.4 | > 100 µM |  |  | 64.7 | > 100 µM | > 100 | > 100 µM | > 100 | > 100 µM | > 100 | > 100 µM
C#CCOc1cccc(Nc2ncc3ncn(C4CCN(C(=O)CCl)C4)c3n2)c1 (stereo not given) | > 62.5 | > 62.5 | > 62.5 | > 62.5 µM | > 62.5 | > 62.5 µM | > 62.5 | > 62.5 µM | 2.46 | > 62.5 µM | > 62.5 | > 62.5 µM | 22.7 | > 62.5 µM | 37.8 | > 62.5 µM
Cc1cc(O)c2c(c1)C(=O)C(c1c(C)cc3c(c1O)C(=O)C1OC1C3=O)=CC2=O (stereo not given) |  | 4.77 |  | > 50.7 µM |  | 10.2 µM |  | 5.53 µM |  |  |  | 2.11 µM |  | 0.0151 µM |  | 5.87 µM
CCC(=O)OC1=CN2C(=NC(c3ccc(N)cc3)=CC2c2cc(OC)c(OC)c(OC)c2)S1 (stereo not given) | 3.03 | 11.8 | 3.59 | 16.4 µM | 2.12 | 6.01 µM | 5.54 | 18.3 µM | 2.41 | 9.13 µM | 1.76 | 7.37 µM | 3.01 | > 100 µM | 2.47 | 5.56 µM
O=C(Nc1cccc([N+](=O)[O-])c1)c1cc2ccccc2cc1O | 0.685 |  | 2.93 | > 100 µM | 1.57 | 8.84 µM | 3.23 | > 100 µM | 2.38 | 6.66 µM | 0.422 | 4.41 µM | 0.59 | 3.03 µM | 0.783 | 7.33 µM
C(#Cc1ccccc1C#Cc1ccccn1)c1ccccn1 | 14.7 | 28.6 | 18 | 39.3 µM | 21.3 | 40.2 µM | 27.4 | 84 µM | 13.8 | 38.6 µM | 1.96 | 12.2 µM | 3.92 | 17.7 µM |  | 
COc1cc(CNC(=O)CCSc2nc3ccccc3c(=O)n2Cc2cc(OC)c(OC)c(OC)c2)cc(OC)c1OC | 2.92 | 20.6 | 6 | > 100 µM | 2.86 | 10.7 µM | 6.69 | > 100 µM | 4.91 | > 100 µM | 5.7 | 23.9 µM | 3.57 | > 100 µM | 4.23 | 18.2 µM
CC(C)N(Cc1ccccc1)S(=O)(=O)c1n[nH]c(C(C)(C)C)n1 |  | > 100 |  | > 100 µM |  | > 100 µM |  | > 100 µM |  | > 100 µM |  | > 100 µM |  | > 100 µM |  | > 100 µM
CN(C)c1ccc(N=C(C#N)c2nc(N)nc(N3CCN(c4ccccc4)CC3)n2)cc1 | > 50 | > 50 | > 50 | > 50 µM | 18.4 | > 50 µM | 12.7 | > 50 µM | > 50 | > 50 µM | 49.8 | > 50 µM | > 50 | > 50 µM | 27.5 | > 50 µM
CC[C@H](C)[C@H](NC(=O)c1nccn1C)C(=O)N(C)[C@H](C[C@@H](OC(C)=O)c1nc(C(=O)N[C@@H](Cc2ccccc2)C[C@H](C)C(=O)OC)cs1)C(C)C | 0.289 | > 33.3 | 1.28 | > 33.3 µM | 0.702 | 1.97 µM | 5.05 | > 33.3 µM | 1.04 | > 33.3 µM | 4.86 | > 33.3 µM | 0.642 | 1.78 µM | 0.481 | 1.65 µM
COc1cc(N=Nc2cccc(S(N)(=O)=O)c2)c2ccccc2c1N |  | 4.19 |  | 42.2 µM |  | 9.19 µM |  | 19.9 µM |  | 38.6 µM |  | > 58 µM |  | 23.6 µM |  | 27.5 µM
N#Cc1c(NCc2ccccc2)nc(NCc2ccccc2)c(C#N)c1-c1cccc(O)c1 | 2.1 | 7.04 | 17.1 | > 100 µM | 5.18 | 22.1 µM | 61 | > 100 µM | 3.38 | > 100 µM | 2.51 | 18.9 µM |  |  | 3.31 | 19.4 µM
O=C(Nc1ccc(-c2ccnc(Nc3ccc(N4CCOCC4)cc3)n2)cc1)C1CCCN1 (stereo not given) | 6.63 | 20.8 | 18 | 64.7 µM | 2.33 | 14.2 µM | 8.95 | 22.3 µM | 2.36 | 39.9 µM | 4.1 | 24.4 µM | 4.5 | 25.5 µM | 9.43 | 27.3 µM
Cc1ccc(/C=C2\CN(Cc3cn(CCNc4ccnc5cc(Cl)ccc45)nn3)C/C(=C\c3ccc(C)cc3)C2=O)cc1 | 1.88 | 3.43 | 1.82 | 3.43 µM | 1.79 | 3.26 µM | 1.74 | 3.26 µM |  |  | 1.45 | 3.01 µM | 2.23 | 5.26 µM | 1.8 | 3.24 µM
C[C@H]1CC2=CC(=O)CC[C@]2(C)[C@H]2CC[C@@]3(C)[C@@H](CC[C@]3(C)O)[C@H]12 | 22.2 | > 67 | 43.3 | > 100 µM | 32.5 | > 100 µM | 29.3 | > 85.2 µM | 12.1 | 53.7 µM | 8.66 | 44.3 µM | 12.9 | 36.8 µM | 33.9 | > 91.8 µM
O=C(Nc1ccccc1C(=O)Nc1nccs1)c1ccccc1 |  | > 100 |  | > 100 µM |  | > 100 µM |  | > 100 µM |  | > 100 µM |  |  |  | > 100 µM |  | 36.6 µM

SMILES | GI50 [1] [µM] | TGI [1] [µM] | GI50 [2] [µM] | TGI [2] | GI50 [3] [µM] | TGI [3] | GI50 [4] [µM] | TGI [4] | GI50 [5] [µM] | TGI [5] | GI50 [6] [µM] | TGI [6] | GI50 [7] [µM] | TGI [7] | GI50 [8] [µM] | TGI [8]
CCCNc1cccc(-n2ncc3c(N/N=C/c4ccncc4)ncnc32)c1 | > 7.76 | > 25 | > 25 | > 25 µM | > 8.45 | > 25 µM | > 10 | > 25 µM | > 25 | > 25 µM | 9.32 | > 25 µM |  |  | 2.17 | > 25 µM
CCN(CC)CCOc1nc2cc(OC)c(OC)cc2c2c1-c1ccc(OC)cc1C2=O | 15.5 | 36.3 | 10.5 | 23.7 µM | 8.62 | 23.6 µM | 21.5 | 36.4 µM | 0.54 | 12.3 µM | 15.7 | 32.1 µM | 13.4 | 34.6 µM | 11.7 | 24 µM
CS(=O)(=O)Nc1cc(-c2ccc3ncnc(Nc4cccc(Cl)c4F)c3c2)cnc1Cl | 1.76 | 11.7 | 2.83 | 16.1 µM | 2.26 | 7.98 µM | 1.59 | 9.27 µM | 2.59 | > 100 µM | 0.672 | 5.31 µM | 3.19 | 40.2 µM | 1.84 | 7.52 µM
N#Cc1ccc2c(c1)C(=O)c1c-2n(CCCN=[N+]=[N-])c(=O)c2cc([N+](=O)[O-])ccc12 | 3.6 | > 50 | 33 | > 50 µM | > 50 | > 50 µM | > 50 | > 50 µM | 1.82 | > 50 µM | 5.55 | 40.1 µM | > 50 | > 50 µM | > 50 | > 50 µM
COc1cc(/C=C\c2cc(OC)c(OC)c(OC)c2)cc(NS(=O)(=O)c2cccc(Cl)c2)c1OC | 0.0568 | > 100 | 0.214 | > 100 µM |  |  | 1.61 | 49 µM | 0.0492 | > 100 µM | 0.0715 | > 100 µM | 0.032 | > 100 µM | 0.0346 | > 100 µM
Cc1cc(Cl)ccc1NC(=O)NC(C)(C)COC(=O)Nc1cccc(Cl)c1 | 4.73 | > 100 | 5.57 | > 100 µM | 9.4 | > 100 µM | 22.3 | > 100 µM | 3.88 | 37.3 µM | 3.48 | 26.4 µM | 9.71 | 71.9 µM | 3.78 | 12.7 µM
O=[N+]([O-])c1ccc(NC(=S)N/N=C(\c2ccccc2)c2ccccn2)cc1 | 3.4 | 2.92 |  | 3.12 µM and 2.97 µM | 1.41 | 2.9 µM and 3.33 µM | 1.38 | 2.9 µM and 2.69 µM | 0.0073 | 2.31 µM and 10.2 µM | 1.32 | 3.39 µM and 2.6 µM | 1.59 | 4.32 µM and > 20.4 µM |  | 1.36 µM and 2.76 µM
CC1(C)N=C(N)N=C(N)N1c1ccc(OCCCCNC(=O)c2ccc(S(=O)(=O)F)cc2)c(Cl)c1 | 4.27 | > 100 | 13.6 | > 100 µM | 7.11 | > 100 µM | 54.1 | > 100 µM | 5.65 | > 100 µM | > 100 | > 100 µM | 1.84 | > 100 µM | 50.4 | > 100 µM
N=C1C(c2nc(-c3ccc(Br)cc3)cs2)=C(O)CN1CC1CCCO1 (stereo not given) | > 100 | > 100 | > 100 | > 100 µM | > 100 | > 100 µM | > 100 | > 100 µM | > 100 | > 100 µM | > 100 | > 100 µM | > 100 | > 100 µM |  | 
N#Cc1ncc(N2C(=O)C3(CCC3)N(c3ccc(OC4CCNCC4)nc3)C2=S)cc1C(F)(F)F | 15.9 | 31.5 | 36.8 | > 100 µM | 15.4 | 30 µM | 13.8 | 27.4 µM | 13.5 | 39.1 µM | 1.11 | 10.5 µM | 12.1 | 33.9 µM |  | 
C=Cc1cnc([N+](=O)[O-])n1C |  |  |  | > 100 µM |  | > 100 µM |  | > 100 µM |  | > 100 µM |  | > 100 µM |  | > 100 µM |  | > 100 µM
O=c1oc2cc(OS(=O)(=O)c3ccccc3)ccc2c2c1CCCCC2 | 4.73 | > 100 | > 100 | > 100 µM | 6.68 | > 100 µM | > 100 | > 100 µM | 4.56 | > 100 µM |  |  | 2.05 | 8.54 µM |  | 
CCC1(CC)C(=O)[N-]C(=O)[N-]C1=O.[Au+].[Au+].c1ccc([PH+](c2ccccc2)c2ccccc2)cc1.c1ccc([PH+](c2ccccc2)c2ccccc2)cc1 | 1.02 | 2.2 |  |  |  |  | 0.988 | 2.34 µM |  |  |  |  |  |  | 1.31 | 2.59 µM
C=C1C(=O)O[C@H]2[C@H]1CC/C(COC(=O)/C=C/c1c[nH]c3ccccc13)=C\CC[C@@]1(C)O[C@@H]21 | 0.177 | 0.379 |  |  | 0.261 | 0.941 µM | 0.332 | 1.3 µM | 0.0733 | 0.854 µM | 0.156 | 0.369 µM | 0.256 | 0.717 µM | 0.173 | 0.37 µM
CN1N=Nc2c(C(F)(F)F)nn(-c3ccccc3)c2N(C)C1=O | > 100 | > 100 | > 100 | > 100 µM | > 100 | > 100 µM | > 100 | > 100 µM |  |  | > 100 | > 100 µM | > 32 | > 52.7 µM | > 100 | > 100 µM
N#C/C(=C\c1cccnc1)c1nc2ccccc2o1 | > 100 | > 100 | > 100 | > 100 µM | > 100 | > 100 µM | > 100 | > 100 µM |  |  | 40.8 | > 100 µM | > 100 | > 100 µM | > 100 | > 100 µM

— PubChem BioAssay (NCI)
